Key:
[1] = target: T1, (H^+,K^+)ATPase (Sus scrofa, UniProt P19156); experiment: Inhibition of (H^+,K^+)ATPase activity (method of Fellenius); format: biochemical; conditions: 3 × 10^-4 M, pig gastric mucosa, pH 7.4, 37° C.
T1 construct: (H^+,K^+)ATPase is prepared from the pig gastric mucosa; from tissue; host or cells: pig gastric mucosa
Experimental: Inhibition of (H^+,K^+)ATPase activities. Inhibition of (H^+,K^+) ATPase activities is determined by the method of F. Fellenius et al., Nature 290, pp. 159~161, 1981. (H^+,K^+)ATPase is prepared from the pig gastric mucosa and the test compound is incubated with […], 40 mM of tris-buffer (pH 7.4), 2 mM of MgCl2 and 10 mM of KCl at 37° C. Inorganic phosphate occurring by stimulation of ATPase is determined.

[2] = tested on: gastric-acid secretion; experiment: Gastric acid antisecretory activity, pylorus-ligated rat (method of Shay); format: in vivo; conditions: intraduodenal, 50 mg/kg intraduodenally just after pylorus ligation, 4 hours after ligation, read-out: Total Acid Inhibition
Experimental: Gastric acid antisecretory activities
Inhibitory activities of gastric-acid secretion are determined by the method of Shay (Gastroenterology 26, 906). Rats are fasted for 24 hours and pylorus ligation is carried out under light anesthesia.
Drug is given intraduodenally just after the ligation. Four hours after ligation, the stomach of the rat is removed and the acidity of gastric juice is determined.

[3] = Cytoprotective activity, inhibition of ethanol-induced ulcer (method of Robert); format: in vivo; conditions: rat, 100 mg/kg perorally 30 minutes before 1 ml absolute ethanol, stomach removed one hour after ethanol
Experimental: Cytoprotective Activities
Inhibitory activities of ethanol-induced ulcer are determined by the method of Robert (Gastroenterology 77, 433~443). Rats are fasted for 24 hours and are given 1 ml of absolute ethanol perorally. One hour after administration of ethanol, the stomach of the rat is removed. The length of each ulcer occurring in the grandulor stomach is determined and each ulcer in one rat is accounted as the ulcer-index. The test compounds are given perorally 30 minutes before absolute ethanol administration.

T1 sequence (P19156 2-1034 limits assumed): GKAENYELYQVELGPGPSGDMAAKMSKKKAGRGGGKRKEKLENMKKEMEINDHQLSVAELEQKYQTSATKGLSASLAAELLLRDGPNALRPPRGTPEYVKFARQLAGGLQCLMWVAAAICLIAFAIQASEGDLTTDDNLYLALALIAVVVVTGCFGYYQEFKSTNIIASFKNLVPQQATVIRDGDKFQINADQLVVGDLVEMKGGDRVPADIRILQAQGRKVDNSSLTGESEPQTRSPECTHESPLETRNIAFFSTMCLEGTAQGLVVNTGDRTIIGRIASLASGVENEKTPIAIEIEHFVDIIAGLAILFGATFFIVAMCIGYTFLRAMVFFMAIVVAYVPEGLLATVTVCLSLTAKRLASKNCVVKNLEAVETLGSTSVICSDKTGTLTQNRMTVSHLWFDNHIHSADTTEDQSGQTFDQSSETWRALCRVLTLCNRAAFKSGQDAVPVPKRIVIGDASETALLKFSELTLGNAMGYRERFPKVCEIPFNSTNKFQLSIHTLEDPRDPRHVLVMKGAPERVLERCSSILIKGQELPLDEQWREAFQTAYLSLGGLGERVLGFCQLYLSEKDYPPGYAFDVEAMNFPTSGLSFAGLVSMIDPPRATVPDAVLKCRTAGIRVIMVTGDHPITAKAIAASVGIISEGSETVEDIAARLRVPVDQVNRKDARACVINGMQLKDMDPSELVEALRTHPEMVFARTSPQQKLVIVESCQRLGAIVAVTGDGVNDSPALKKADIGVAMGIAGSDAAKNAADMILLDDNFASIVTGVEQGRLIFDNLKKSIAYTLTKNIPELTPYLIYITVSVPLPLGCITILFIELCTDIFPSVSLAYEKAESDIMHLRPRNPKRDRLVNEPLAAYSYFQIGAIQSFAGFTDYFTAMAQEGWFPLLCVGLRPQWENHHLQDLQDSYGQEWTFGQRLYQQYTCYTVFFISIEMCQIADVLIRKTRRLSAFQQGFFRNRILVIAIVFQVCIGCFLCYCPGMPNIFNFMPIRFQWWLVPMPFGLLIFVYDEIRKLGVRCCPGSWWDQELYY
T1 sequence (P18434 whole entry partner): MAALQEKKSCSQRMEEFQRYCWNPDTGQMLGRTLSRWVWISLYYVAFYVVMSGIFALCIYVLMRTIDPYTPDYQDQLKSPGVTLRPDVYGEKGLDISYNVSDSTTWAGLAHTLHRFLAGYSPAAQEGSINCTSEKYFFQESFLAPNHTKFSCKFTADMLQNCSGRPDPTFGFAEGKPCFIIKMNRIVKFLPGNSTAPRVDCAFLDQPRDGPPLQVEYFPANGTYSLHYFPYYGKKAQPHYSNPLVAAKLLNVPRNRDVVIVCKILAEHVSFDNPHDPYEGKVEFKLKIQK

Structure (SMILES): Cc1nc(-c2ccccc2)c(CSc2nc3cccccc-3n2)o1 [Compound 37, 2-(2-Methyl-4-Phenyloxazole-5-yl)methylthio-cycloheptoimidazole]
- inhibition at 300 µM [1]: 48%

Structure (SMILES): Cc1oncc1CSc1nc2cccccc-2n1 [Compound 34, 2-(5-Methylisoxazole-4-yl)methylthio-cycloheptoimidazole]
- inhibition in vivo at 50 mg/kg [2]: 70.1%

Structure (SMILES): c1ccc2nc(SCc3c[nH]cn3)nc-2cc1 [Compound 13, 2-(4-imidazolyl)methylthio-cycloheptoimidazole]
- inhibition in vivo at 50 mg/kg [2]: 66.5%
- Inhibition of ethanol-induced ulcer [3]: 88.1%

Structure (SMILES): Clc1ccc(CSc2nc3cccccc-3n2)cc1 [Compound 28, 2-(p-Chlorophenyl)methylthio-cycloheptoimidazole]
- inhibition in vivo at 50 mg/kg [2]: 39.1%

Structure (SMILES): CN(C)c1ccc(C[S+]([O-])c2nc3cccccc-3n2)cc1 (centres unmarked) [Compound 49, 2-(p-Dimethylaminophenyl)methylthio-cycloheptoimidazole-S-oxide]
- inhibition in vivo at 50 mg/kg [2]: 33.6%

Structure (SMILES): Nc1nc(CSc2nc3cccccc-3n2)cs1 [Compound 14, 2-(2-Aminothiazole-4-yl)methylthio-cycloheptoimidazole]
- Inhibition of ethanol-induced ulcer [3]: 90.3%

Structure (SMILES): c1ccc2nc(SCc3ccncc3)nc-2cc1 [Compound 12, 2-(4-Pyridyl)methylthio-cycloheptoimidazole]
- inhibition in vivo at 50 mg/kg [2]: 66.8%

Structure (SMILES): Nc1ccccc1CSc1nc2cccccc-2n1 [Compound 57, 2-(o-aminophenyl)methylthio-cycloheptoimidazol]
- inhibition in vivo at 50 mg/kg [2]: 92.9%
- inhibition at 300 µM [1]: 46%

Structure (SMILES): Cc1ccc(C[S+]([O-])c2nc3cccccc-3n2)cc1 (centres unmarked) [Compound 45, 2-(p-Tolyl)methylthio-cycloheptoimidazole-S-oxide]
- inhibition in vivo at 50 mg/kg [2]: 90.7%

Structure (SMILES): CC(C)c1ccc2nc(SCc3ccccn3)nc-2cc1 [Compound 1, 2-(2-Pyridyl)methylthio-6-isopropyl-cycloheptoimidazole]
- inhibition in vivo at 50 mg/kg [2]: 80.5%

Structure (SMILES): c1ccc2nc(SCc3cccnc3)nc-2cc1 [Compound 9, 2-(3-Pyridyl)methylthio-cycloheptoimidazole]
- Inhibition of ethanol-induced ulcer [3]: 83.1%

Structure (SMILES): Cc1noc(C)c1C[S+]([O-])c1nc2cccccc-2n1 (centres unmarked) [Compound 53, 2(3,5-Dimethylisoxazole-4-yl)methylthio-cycloheptoimidazole-S-oxide]
- inhibition in vivo at 50 mg/kg [2]: 95.7%
- inhibition at 300 µM [1]: 45%

Structure (SMILES): COc1ccc(C[S+]([O-])c2nc3cccccc-3n2)cc1 (centres unmarked) [Compound 47, 2-(p-Methoxyphenyl)methylthio-cycloheptoimidazole-S-oxide]
- inhibition in vivo at 50 mg/kg [2]: 90.7%
- inhibition at 300 µM [1]: 32%

Structure (SMILES): Cc1cc(C[S+]([O-])c2nc3cccccc-3n2)on1 (centres unmarked) [Compound 52, 2-(3-Methylisoxazole-5-yl)methylthio-cycloheptoimidazole-S-oxide]
- inhibition in vivo at 50 mg/kg [2]: 96.9%

Structure (SMILES): c1ccc2nc(SCCn3cnc4ccccc43)nc-2cc1 [Compound 3, 2-(1-Benzimidazolyl)ethylthio-cycloheptoimidazole]
- inhibition in vivo at 50 mg/kg [2]: 22.4%

Structure (SMILES): CSc1nnc(CSc2nc3cccccc-3n2)s1 [Compound 8, 2-(2-Methylthio-1,3,4-thiadiazole-5-yl)methylthio-cycloheptoimidazole]
- inhibition in vivo at 50 mg/kg [2]: 20.6%

Structure (SMILES): c1ccc2nc(SCc3ccn[nH]3)nc-2cc1 [Compound 10, 2-(5-Pyrazolyl)methylthio-cycloheptoimidazole]
- inhibition in vivo at 50 mg/kg [2]: 54.4%

Structure (SMILES): CC(C)c1ccc2nc(SCc3csc(N)n3)nc-2cc1 [Compound 15, 2-(2-Aminothiazole-4-yl)methylthio-6-isopropyl-cycloheptoimidazole]
- inhibition in vivo at 50 mg/kg [2]: 21%
- Inhibition of ethanol-induced ulcer [3]: 90.0%

Structure (SMILES): [O-][S+](Cc1c[nH]cn1)c1nc2cccccc-2n1 (centres unmarked) [Compound 51, 2-(4-imidazolyl)methylthio-cycloheptoimidazole-S-oxide]
- inhibition in vivo at 50 mg/kg [2]: 63.6%

Structure (SMILES): COc1ccc(CSc2nc3cccccc-3n2)cc1 [Compound 26, 2-(p-Methoxyphenyl)methylthio-cycloheptoimidazole]
- inhibition in vivo at 50 mg/kg [2]: 81.6%

Structure (SMILES): c1ccc(CSc2nc3cccccc-3n2)cc1 [Compound 31, 2-(Phenyl)methylthio-cycloheptoimidazole]
- inhibition in vivo at 50 mg/kg [2]: 78.9%

Structure (SMILES): COc1ccc(C[S+]([O-])c2nc3cccccc-3n2)c(OC)c1OC (centres unmarked) [Compound 44, 2-(2,3,4-Trimethoxyphenyl)methylthio-cycloheptoimidazole-S-oxide]
- inhibition in vivo at 50 mg/kg [2]: 89.8%
- inhibition at 300 µM [1]: 25%

Structure (SMILES): Nc1cccc(CSc2nc3cccccc-3n2)c1 [Compound 30, 2-(m-Aminophenyl)methylthio-cycloheptoimidazole]
- inhibition in vivo at 50 mg/kg [2]: 52.5%

From patent US4735955A, “2-substituted cycloheptoimidazole derivatives and anti-ulcerative agents containing the same” (Kotobuki Seiyaku Co., Ltd., priority 1985, dated 1988)
